Where two headings read alike, the source gives them in different places.

The test system of assay [1] is Mycosphaerella graminicola; Anamorph: Septoria tritici. As to the kind of experiment: Leaf blotch of wheat (SEPTTR) disease control on wheat seedlings. Format: in vivo. To be noted: Zymoseptoria tritici, Wheat Leaf Blotch; for pest or weed control at 100 ppm: high volume application; for pest or weed control at 121.5 g/ha: low volume application, 121.5 g/H. A digest of the protocol: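 Protective or curative format: Septoria tritici inoculation either preceded or followed fungicide application to first-leaf Yuma wheat. Severity scored 0–100%; control expressed versus untreated.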

The test system of assay [2] is Puccinia triticina; Synonym: Puccinia recondite f. sp. tritici. As to the kind of experiment: Wheat brown rust (PUCCRT) disease control on wheat seedlings. To be noted: Puccinia triticina, Wheat Brown Rust; for pest or weed control at 100 ppm: high volume application; for pest or weed control at 121.5 g/ha: low volume application, 121.5 g/H. Format: in vivo. A digest of the protocol:
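Yuma wheat grown to first fully emerged leaf was inoculated with Puccinia triticina spore suspension either before or after fungicide treatment, held overnight at 22° C. and 100% RH in darkness, then kept at 24° C. Fungicide applied by booth sprayer to run-off (acetone/water, 110 ppm Triton X-100) or as EC by track spray.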

Where [3] appears, read: 24 h, 1 Day Protectant, read-out: Disease Control SEPTTR 1 DP 100 ppm.
Setting [4] is: 24 h, 1 Day Protectant, read-out: Disease Control SEPTTR 1 DP 121.5 g/H.
Where [5] appears, read: 72 h, 3 Day Curative, read-out: Disease Control SEPTTR 3 DC 100 ppm.
The mark [6] stands for this setting: 24 h, 1 Day Protectant, read-out: Disease Control PUCCRT 1 DP 100 ppm.
[7] abbreviates: 24 h, 1 Day Protectant, read-out: Disease Control PUCCRT 1 DP 121.5 g/H.
The mark [8] stands for this setting: 72 h, 3 Day Curative, read-out: Disease Control PUCCRT 3 DC 100 ppm.
Where [9] appears, read: 72 h, 3 Day Curative, read-out: Disease Control PUCCRT 3 DC 121.5 g/H.
The mark [10] stands for this setting: 72 h, 3 Day Curative, read-out: Disease Control SEPTTR 3 DC 121.5 g/H.

Turning to `CCCO[C@H]1CCC[C@H](NC(=O)c2nccc(OC)c2OCOC(C)=O)C(=O)O[C@@H](C)[C@@H]1Oc1ccc(F)cc1` [F265], the pest or weed control at 100 ppm in assay [1] (setting [3]), in assay [1] (setting [5]), in assay [2] (setting [6]) and in assay [2] (setting [8]) was 80 to 100% each time. Further, the pest or weed control at 121.5 g/ha in assay [1] (setting [4]) lay within 80 to 100%; in assay [2] (setting [7]) it was 80 to 100%; in assay [2] (setting [9]), 0 to 80%.
`CCCO[C@H]1CCC[C@H](NC(=O)c2nccc(OC)c2OC(C)=O)C(=O)O[C@@H](C)[C@@H]1Oc1ccc(F)cc1` [F266]: the pest or weed control at 121.5 g/ha in assay [1] (setting [4]), in assay [2] (setting [7]) and in assay [2] (setting [9]) was 80 to 100% in each case.
On to `CCCO[C@H]1[C@H](C)OC(=O)[C@@H](NC(=O)c2nccc(OC)c2OCOC(C)=O)CCC[C@@H]1Oc1ccc(F)cc1` [F267], for which the pest or weed control at 100 ppm in assay [1] (setting [3]), in assay [1] (setting [5]), in assay [2] (setting [6]) and in assay [2] (setting [8]) was 80 to 100% throughout.
As to `CCCO[C@H]1CCC[C@H](NC(=O)c2nccc(OC)c2O)C(=O)O[C@@H](C)[C@@H]1Oc1ccc(OC)cc1` [F270], the pest or weed control at 100 ppm in assay [1] (setting [3]) was in the range of 80 to 100%; in assay [1] (setting [5]) it was 0 to 80%; in assay [2] (setting [6]), 80 to 100%; in assay [2] (setting [8]), 80 to 100%.
With `CCCO[C@H]1CCC[C@H](NC(=O)c2nccc(OC)c2O)C(=O)O[C@@H](C)[C@@H]1Oc1cccc(F)c1` [F271], the pest or weed control at 100 ppm in assay [1] (setting [3]), in assay [1] (setting [5]), in assay [2] (setting [6]) and in assay [2] (setting [8]) was 80 to 100% each time.
As for `CCCO[C@H]1CCC[C@H](NC(=O)c2nccc(OC)c2O)C(=O)O[C@@H](C)[C@@H]1Oc1cccc(Cl)c1` [F272], the pest or weed control at 100 ppm in assay [1] (setting [3]), in assay [1] (setting [5]), in assay [2] (setting [6]) and in assay [2] (setting [8]) was 80 to 100% in each case.
For `CCCO[C@H]1CCC[C@H](NC(=O)c2nccc(OC)c2O)C(=O)O[C@@H](C)[C@@H]1Oc1ccc(Br)cc1` [F273], the pest or weed control at 100 ppm is 80 to 100% in assay [1] (setting [3]), 0 to 80% in assay [1] (setting [5]), 80 to 100% in assay [2] (setting [6]) and 80 to 100% in assay [2] (setting [8]).
As to `CCCO[C@H]1CCC[C@H](NC(=O)c2nccc(OC)c2OC(C)=O)C(=O)O[C@@H](C)[C@@H]1Oc1ccc(OC)cc1` [F274], the pest or weed control at 100 ppm in assay [1] (setting [3]), in assay [1] (setting [5]), in assay [2] (setting [6]) and in assay [2] (setting [8]) was 80 to 100% throughout. For the same compound, the pest or weed control at 121.5 g/ha in assay [1] (setting [4]) lay within 80 to 100%; in assay [1] (setting [10]), 80 to 100%; in assay [2] (setting [7]), 80 to 100%; in assay [2] (setting [9]), 0 to 80%.
For the compound `CCCO[C@H]1CCC[C@H](NC(=O)c2nccc(OC)c2OC(C)=O)C(=O)O[C@@H](C)[C@@H]1Oc1cccc(F)c1` [F275], the pest or weed control at 100 ppm in assay [1] (setting [3]), in assay [1] (setting [5]), in assay [2] (setting [6]) and in assay [2] (setting [8]) was 80 to 100% each time. Moreover, the pest or weed control at 121.5 g/ha in assay [1] (setting [4]), in assay [1] (setting [10]), in assay [2] (setting [7]) and in assay [2] (setting [9]) was 80 to 100% throughout.
With `CCCO[C@H]1[C@H](C)OC(=O)[C@@H](NC(=O)c2nccc(OC)c2O)CCC[C@@H]1Oc1cccc(F)c1` [F280], the pest or weed control at 100 ppm in assay [1] (setting [3]) was 80 to 100%; in assay [1] (setting [5]), 80 to 100%; in assay [2] (setting [6]), 80 to 100%; in assay [2] (setting [8]), 0 to 80%.
As to `CCCO[C@H]1[C@H](C)OC(=O)[C@@H](NC(=O)c2nccc(OC)c2O)CCC[C@@H]1Oc1cc(C)cc(C)c1` [F281], the pest or weed control at 100 ppm in assay [1] (setting [3]) fell in the range of 0 to 80%; in assay [1] (setting [5]), 0 to 80%; in assay [2] (setting [6]) it was 80 to 100%; in assay [2] (setting [8]), 0 to 80%.
Take `CCCO[C@H]1[C@H](C)OC(=O)[C@@H](NC(=O)c2nccc(OC)c2OC(C)=O)CCC[C@@H]1Oc1cc(C)cc(C)c1` [F282]: the pest or weed control at 100 ppm in assay [1] (setting [3]), in assay [1] (setting [5]), in assay [2] (setting [6]) and in assay [2] (setting [8]) was 80 to 100% throughout. Besides, the pest or weed control at 121.5 g/ha in assay [1] (setting [4]), in assay [1] (setting [10]), in assay [2] (setting [7]) and in assay [2] (setting [9]) was 80 to 100% each time.
Turning to `CCCO[C@H]1CCC[C@H](NC(=O)c2nccc(OC)c2O)C(=O)O[C@@H](C)[C@@H]1Oc1ccc(-c2ccccc2)cc1` [F283], the pest or weed control at 100 ppm in assay [1] (setting [3]) is 80 to 100%; in assay [1] (setting [5]), 0 to 80%; in assay [2] (setting [6]), 80 to 100%; in assay [2] (setting [8]), 0 to 80%.
As to `CCCO[C@H]1[C@H](C)OC(=O)[C@@H](NC(=O)c2nccc(OC)c2OC(C)=O)CCC[C@@H]1Oc1cccc(F)c1` [F284], the pest or weed control at 100 ppm in assay [1] (setting [3]), in assay [1] (setting [5]), in assay [2] (setting [6]) and in assay [2] (setting [8]) was 80 to 100% throughout. Also, the pest or weed control at 121.5 g/ha in assay [1] (setting [4]), in assay [1] (setting [10]), in assay [2] (setting [7]) and in assay [2] (setting [9]) was 80 to 100% throughout.
In the case of `CCCO[C@H]1CCC[C@H](NC(=O)c2nccc(OC)c2OC(C)=O)C(=O)O[C@@H](C)[C@@H]1Oc1ccc(Br)cc1` [F285], the pest or weed control at 100 ppm in assay [1] (setting [3]) was in the range of 80 to 100%; in assay [1] (setting [5]), 80 to 100%; in assay [2] (setting [6]) it was 80 to 100%; in assay [2] (setting [8]), 0 to 80%. Also, the pest or weed control at 121.5 g/ha in assay [1] (setting [4]), in assay [1] (setting [10]), in assay [2] (setting [7]) and in assay [2] (setting [9]) was 80 to 100% throughout.
`CCCO[C@H]1CCC[C@H](NC(=O)c2nccc(OC)c2OC(C)=O)C(=O)O[C@@H](C)[C@@H]1Oc1cccc(Cl)c1` [F286]: the pest or weed control at 100 ppm in assay [1] (setting [3]), in assay [1] (setting [5]), in assay [2] (setting [6]) and in assay [2] (setting [8]) was 80 to 100% throughout. Besides, the pest or weed control at 121.5 g/ha in assay [1] (setting [4]) lay in the range of 80 to 100%; in assay [1] (setting [10]), 80 to 100%; in assay [2] (setting [7]), 80 to 100%; in assay [2] (setting [9]) it was 0 to 80%.
As to `CCCO[C@H]1CCC[C@H](NC(=O)c2nccc(OC)c2OC(C)=O)C(=O)O[C@@H](C)[C@@H]1Oc1ccc(-c2ccccc2)cc1` [F287], the pest or weed control at 100 ppm in assay [1] (setting [3]), in assay [1] (setting [5]), in assay [2] (setting [6]) and in assay [2] (setting [8]) was 80 to 100% in each case. Further, the pest or weed control at 121.5 g/ha in assay [1] (setting [4]), in assay [1] (setting [10]), in assay [2] (setting [7]) and in assay [2] (setting [9]) was 80 to 100% each time.
As to `C=C(C)c1ccc(O[C@H]2[C@H](C)OC(=O)[C@@H](NC(=O)c3nccc(OC)c3O)CCC[C@@H]2OCCC)cc1` [F288], the pest or weed control at 100 ppm in assay [1] (setting [3]), in assay [1] (setting [5]), in assay [2] (setting [6]) and in assay [2] (setting [8]) was 80 to 100% each time.
`C=C(C)c1ccc(O[C@H]2[C@H](C)OC(=O)[C@@H](NC(=O)c3nccc(OC)c3OC(C)=O)CCC[C@@H]2OCCC)cc1` [F289]: the pest or weed control at 100 ppm in assay [1] (setting [3]), in assay [1] (setting [5]), in assay [2] (setting [6]) and in assay [2] (setting [8]) was 80 to 100% in each case. The pest or weed control at 121.5 g/ha in assay [1] (setting [4]), in assay [1] (setting [10]), in assay [2] (setting [7]) and in assay [2] (setting [9]) was 80 to 100% throughout.
In the case of `CCCOC(=O)O[C@H]1CCC[C@H](NC(=O)c2nccc(OC)c2O)C(=O)O[C@@H](C)[C@@H]1Oc1cc(C)cc(C)c1` [F290], the pest or weed control at 100 ppm fell in the range of 0 to 80% in assay [1] (setting [3]), 0 to 80% in assay [1] (setting [5]), 80 to 100% in assay [2] (setting [6]) and 80 to 100% in assay [2] (setting [8]).
On to `CCCOC(=O)O[C@H]1CCC[C@H](NC(=O)c2nccc(OC)c2OC(C)=O)C(=O)O[C@@H](C)[C@@H]1Oc1cc(C)cc(C)c1` [F291], for which the pest or weed control at 100 ppm in assay [1] (setting [3]) is 80 to 100%; in assay [1] (setting [5]), 80 to 100%; in assay [2] (setting [6]) it was 80 to 100%; in assay [2] (setting [8]) it was 0 to 80%.

(Values after patent US9681664B2, “Macrocyclic picolinamides as fungicides” (Dow Agrosciences LLC, priority 2012, dated 2017).)
